# Tested on: genotype D HBV
# Test: HBV-DNA Antiviral Assay Using HepG2.117 Cells
# Assay type: cell-based
# Details: Hepatitis B virus, HepG2.117, 96 h, intracellular HBV DNA by qPCR, day 4
# Procedure: The following assay procedure describes the HBV antiviral assay, using HepG2.117 cells, which carry a stably integrated genotype D HBV genome under the control of a Tet-off promoter, and intracellular HBV DNA quantification as endpoint. Cell viability is assessed in parallel by measuring the intracellular ATP content using ATPlite (Perkin Elmer).
# On day 0, HepG2.117 cells (which are maintained in routine cell culture with doxycycline present in the medium at a final concentration of 1 μg/mL) were seeded in 96-well plates (white with clear bottom) at a density of 2.0×10^4 cells/well (0.1 mL/well) in medium without doxycycline to induce pgRNA transcription and subsequent formation of HBV particles. The cells were incubated at 37° C. and 5% CO2.
# On day 1, medium was removed from each well, the test articles were diluted in culture medium without doxcycyline and 100 μL was added to cell culture wells (9 concentrations, 4-fold dilution). For each plate, 6 untreated (merely DMSO) wells were included. The final concentration of DMSO in the culture medium was 2%. Each plate was prepared in duplicate (one for HBV DNA extraction, one for ATPlite measurement). The cells were incubated at 37° C. and 5% CO2 for 3 days.
# On day 4, cell viability was assessed using ATPlite and cell lysates were prepared for HBV DNA extraction and subsequent quantification by qPCR.
# Medium was removed from each well and 100 μL of 0.33% NP-40 in H2O was added to each well. Plates were sealed, incubated at 4° C. for 5 mins, vortexed extensively and centrifuged briefly. Next, 35 μL of lysate was added to 65 μL QuickExtract DNA Extraction Solution (Epicentre) in a PCR plate for each well. PCR plate was incubated at 65° C. for 6 mins, 98° C. for 2 mins and finally cooled to 4° C. HBV DNA was then quantified by qPCR with HBV-specific primers and probes as specified in Table 4 using the Bio-Rad SSOAdvanced Universal Probes Supermix on a CFX96 machine (Bio-Rad). The PCR cycle program consisted of 95° C. for 3 mins, followed by 40 cycles at 95° C. for 10 sec and 60° C. for 30 sec.
# A DNA standard was prepared by dilution of an IDT gBlock corresponding to the amplicon with concentrations ranging from 10^2 to 10^8 copies/input (i.e. per 4 μL) and used to generate a standard curve by plotting Cq values vs. HBV DNA standard concentration. The quantity of HBV DNA in each sample was determined by interpolating from the standard curve.
# Cell viability was calculated as follows: % Cell viability=(luminescence value of test sample)/(average luminescence value of 2% DMSO control)×100%. HBV DNA inhibition was calculated as follows: 100−(HBV DNA copy number of test sample)/(average HBV DNA copy number of 2% DMSO control)×100%. No normalization to entecavir was required due to the excellent dynamic window of this assay. The CC50, EC50 and EC90 values were determined by dose-response curves fitted by GraphPad Prism using “log (agonist) vs. response—Variable slope”.
row,SMILES,EC50 [µM]
1,C=CC[C@@H](O)[C@@H]1COc2c(cn(C)c2C(=O)Nc2ccc(F)c(C#N)c2)S(=O)(=O)N1 [Compound 25A],0.01 to 0.1
2,C=CC[C@H](O)[C@@H]1COc2c(cn(C)c2C(=O)Nc2ccc(F)c(C#N)c2)S(=O)(=O)N1 [Compound 25B],0.01 to 0.1
3,C=C[C@](O)([C@@H]1COc2c(cn(C)c2C(=O)Nc2ccc(F)c(C(F)(F)F)c2)S(=O)(=O)N1)C(F)(F)F [Compound 26],0.01 to 0.1
4,C=C[C@@H](C)[C@H]1COc2c(cn(C)c2C(=O)Nc2ccc(F)c(C#N)c2)S(=O)(=O)N1 [Compound 27A],0.01 to 0.1
5,C=C[C@H](C)[C@@H]1COc2c(cn(C)c2C(=O)Nc2ccc(F)c(C#N)c2)S(=O)(=O)N1 [Compound 27B],0.001 to 0.01
6,C=C[C@H](C)[C@H]1COc2c(cn(C)c2C(=O)Nc2ccc(F)c(C#N)c2)S(=O)(=O)N1 [Compound 27C],0.01 to 0.1
7,C=C[C@@H](C)[C@@H]1COc2c(cn(C)c2C(=O)Nc2ccc(F)c(C#N)c2)S(=O)(=O)N1 [Compound 27D],< 0.001
8,C=C[C@@](C)(O)[C@H]1COc2c(cn(C)c2C(=O)Nc2ccc(F)c(C#N)c2)S(=O)(=O)N1 [Compound 28A],0.001 to 0.01
9,C=C[C@](C)(O)[C@H]1COc2c(cn(C)c2C(=O)Nc2ccc(F)c(C#N)c2)S(=O)(=O)N1 [Compound 28B],0.001 to 0.01
10,C=C[C@@](C)(O)[C@H]1COc2c(cn(C)c2C(=O)Nc2ccc(F)c(C(F)(F)F)c2)S(=O)(=O)N1 [Compound 29A],0.01 to 0.1
11,C=C[C@](C)(O)[C@H]1COc2c(cn(C)c2C(=O)Nc2ccc(F)c(C(F)(F)F)c2)S(=O)(=O)N1 [Compound 29B],0.001 to 0.01
12,C=C[C@@]1(CO)COc2c(cn(C)c2C(=O)Nc2ccc(F)c(C#N)c2)S(=O)(=O)N1 [Compound 30A],0.001 to 0.01
13,C=C[C@]1(CO)COc2c(cn(C)c2C(=O)Nc2ccc(F)c(C#N)c2)S(=O)(=O)N1 [Compound 30B],0.01 to 0.1
14,C=C[C@@]1(CO)COc2c(cn(C)c2C(=O)Nc2ccc(F)c(C(F)(F)F)c2)S(=O)(=O)N1 [Compound 31A],0.001 to 0.01
15,C=C[C@]1(CO)COc2c(cn(C)c2C(=O)Nc2ccc(F)c(C(F)(F)F)c2)S(=O)(=O)N1 [Compound 31B],0.001 to 0.01
16,C=C(C)[C@H]1COc2c(cn(C)c2C(=O)Nc2ccc(F)c(C#N)c2)S(=O)(=O)N1 [Compound 32],0.001 to 0.01
17,C=C(C)[C@H]1COc2c(cn(C)c2C(=O)Nc2ccc(F)c(C(F)(F)F)c2)S(=O)(=O)N1 [Compound 33],0.001 to 0.01
18,C=CC(O)([C@H]1COc2c(cn(C)c2C(=O)Nc2ccc(F)c(C#N)c2)S(=O)(=O)N1)C(F)(F)F (some centres unmarked) [Compound 34],< 0.001
19,C#C[C@](C)(O)[C@H]1COc2c(cn(C)c2C(=O)Nc2ccc(F)c(C#N)c2)S(=O)(=O)N1 [Compound 35A],0.001 to 0.01
20,C#C[C@@](C)(O)[C@H]1COc2c(cn(C)c2C(=O)Nc2ccc(F)c(C#N)c2)S(=O)(=O)N1 [Compound 35B],0.001 to 0.01
21,C#C[C@](C)(O)[C@H]1COc2c(cn(C)c2C(=O)Nc2ccc(F)c(C(F)(F)F)c2)S(=O)(=O)N1 [Compound 36A],0.01 to 0.1
22,C#C[C@@](C)(O)[C@H]1COc2c(cn(C)c2C(=O)Nc2ccc(F)c(C(F)(F)F)c2)S(=O)(=O)N1 [Compound 36B],0.001 to 0.01
23,C#CC(O)([C@H]1COc2c(cn(C)c2C(=O)Nc2ccc(F)c(C#N)c2)S(=O)(=O)N1)C(F)(F)F (some centres unmarked) [Compound 37],0.01 to 0.1
24,C=C[C@@]1([C@H](C)O)COc2c(cn(C)c2C(=O)Nc2ccc(F)c(C#N)c2)S(=O)(=O)N1 [Compound 38A],0.01 to 0.1

row,SMILES,EC50 [µM]
1,C=C[C@]1([C@@H](C)O)COc2c(cn(C)c2C(=O)Nc2ccc(F)c(C#N)c2)S(=O)(=O)N1 [Compound 38B],0.01 to 0.1
2,C=C[C@]1([C@H](C)O)COc2c(cn(C)c2C(=O)Nc2ccc(F)c(C#N)c2)S(=O)(=O)N1 [Compound 38C],0.001 to 0.01
3,C=C[C@@]1([C@@H](C)O)COc2c(cn(C)c2C(=O)Nc2ccc(F)c(C#N)c2)S(=O)(=O)N1 [Compound 38D],0.1 to 1
4,C=CC1([C@H]2COc3c(cn(C)c3C(=O)Nc3ccc(F)c(C#N)c3)S(=O)(=O)N2)CCOCC1 [Compound 39A],0.01 to 0.1
5,C=CC1([C@@H]2COc3c(cn(C)c3C(=O)Nc3ccc(F)c(C#N)c3)S(=O)(=O)N2)CCOCC1 [Compound 39B],0.01 to 0.1
6,C=CC[C@](C)(O)[C@H]1COc2c(cn(C)c2C(=O)Nc2ccc(F)c(C#N)c2)S(=O)(=O)N1 [Compound 40A],0.001 to 0.01
7,C=CC[C@@](C)(O)[C@H]1COc2c(cn(C)c2C(=O)Nc2ccc(F)c(C#N)c2)S(=O)(=O)N1 [Compound 40B],0.001 to 0.01
8,C=C[C@H](O)[C@]1(C)COc2c(cn(C)c2C(=O)Nc2ccc(F)c(C#N)c2)S(=O)(=O)N1 [Compound 41A],0.001 to 0.01
9,C=C[C@@H](O)[C@@]1(C)COc2c(cn(C)c2C(=O)Nc2ccc(F)c(C#N)c2)S(=O)(=O)N1 [Compound 41B],0.001 to 0.01
10,C=C[C@H](O)[C@@]1(C)COc2c(cn(C)c2C(=O)Nc2ccc(F)c(C#N)c2)S(=O)(=O)N1 [Compound 41C],0.01 to 0.1
11,C=C[C@@H](O)[C@]1(C)COc2c(cn(C)c2C(=O)Nc2ccc(F)c(C#N)c2)S(=O)(=O)N1 [Compound 41D],0.01 to 0.1
12,C#C[C@H](O)[C@]1(C)COc2c(cn(C)c2C(=O)Nc2ccc(F)c(C#N)c2)S(=O)(=O)N1 [Compound 42A],0.001 to 0.01
13,C#C[C@@H](O)[C@@]1(C)COc2c(cn(C)c2C(=O)Nc2ccc(F)c(C#N)c2)S(=O)(=O)N1 [Compound 42B],0.001 to 0.01
14,C#C[C@H](O)[C@@]1(C)COc2c(cn(C)c2C(=O)Nc2ccc(F)c(C#N)c2)S(=O)(=O)N1 [Compound 42C],0.001 to 0.01
15,C#C[C@@H](O)[C@]1(C)COc2c(cn(C)c2C(=O)Nc2ccc(F)c(C#N)c2)S(=O)(=O)N1 [Compound 42D],0.01 to 0.1
16,C=CC1([C@H]2COc3c(cn(C)c3C(=O)Nc3ccc(F)c(C#N)c3)S(=O)(=O)N2)CCS(=O)(=O)CC1 [Compound 43A],0.01 to 0.1
17,C=CC1([C@@H]2COc3c(cn(C)c3C(=O)Nc3ccc(F)c(C#N)c3)S(=O)(=O)N2)CCS(=O)(=O)CC1 [Compound 43B],0.01 to 0.1
18,C=CC[C@H](O)[C@]1(C)COc2c(cn(C)c2C(=O)Nc2ccc(F)c(C#N)c2)S(=O)(=O)N1 [Compound 44A],0.01 to 0.1
19,C=CC[C@@H](O)[C@@]1(C)COc2c(cn(C)c2C(=O)Nc2ccc(F)c(C#N)c2)S(=O)(=O)N1 [Compound 44B],0.001 to 0.01
20,C=CC(C)(C)[C@H]1COc2c(cn(C)c2C(=O)Nc2ccc(F)c(C#N)c2)S(=O)(=O)N1 [Compound 45A],0.001 to 0.01
21,C=CC(C)(C)[C@@H]1COc2c(cn(C)c2C(=O)Nc2ccc(F)c(C#N)c2)S(=O)(=O)N1 [Compound 45B],0.001 to 0.01
22,CC#CC[C@H]1COc2c(cn(C)c2C(=O)Nc2ccc(F)c(C#N)c2)S(=O)(=O)N1 [Compound 46],0.001 to 0.01
23,C=CC[C@H]1COc2c(cn(C)c2C(=O)Nc2ccc(F)c(C#N)c2)S(=O)(=O)N1 [Compound 47],0.001 to 0.01

# Source: US11033556B2, “Bicyclic sulfonamides” (priority 2019, dated 2021)
